Data: patent US8017828B2, “Utilization of rare sugars in plant or microorganism” (Shikoku Research Institute Incorporated, priority 2004, dated 2011)

Legend:
[1] = system: lipoxygenase gene; experiment: Northern blotting of lipoxygenase gene expression in sprayed cut leaves of rough lemon; format: in vivo; conditions: 0.5 mM sprayed on cut leaves, 2 to 48 hours
Description: Cut leaves of rough lemon were treated by spraying each of 0.5 mM L-psicose, L- & D-tagatose and D-sorbose thereon and were let stand for 2, 4, 6, 12, 24 and 48 hours at 24° C. under the dark condition in a moist chamber. Then, from the treated leaves, total RNA was extracted and the expression of genes of lipoxygenase and chitinase was analyzed by Northern blotting. The assays and analyses were repeated at least 3 times in all the treated plots, and equivalent results were obtained.

[2] = system: tomato plant (variety: “Momotaro”); experiment: Spraying of sugar solution during tomato cultivation; format: in vivo; conditions: 0.2% (w/v) sprayed weekly
Description: In the process of cultivation of tomato, an effect of spraying D-psicose was examined.
A tomato plant (variety: “Momotaro”) was used in an experiment. Tomato seedlings were transplanted for permanent planting to No. 7 unglazed pots filled with “Hana to Yasai no Tsuchi (garden soil for flowers and vegetables)” and a cultivation test was carried out in a vinyl house equipped with a heating device. As a fertilizer, 4 granules of IB compound fertilizer per pot were given around the roots, and irrigation was carried out by automatically feeding 500 ml of water twice a day. During the cultivation, on a weekly basis, water, a 0.2% (w/v) D-glucose solution or a 0.2% (w/v) D-psicose solution was sprayed onto the whole plant. As for the number of tomato plants, 10 plants were used for each group, and the cultivation was carried out twice, i.e., in summer (from April 20 to Aug. 9, 2004) and in winter (from Nov. 4, 2004 to Mar. 14, 2005). A survey was carried out with regard to the growth conditions during the cultivation and yield of fruits.

[3] = system: Fusarium oxysporum IFO 9967 strain; experiment: Infection of treated tomato seeds on agar with Fusarium oxysporum; format: in vivo, tomato plant (variety: “House Momotaro”)
Description: (§1) Therefore, by using a tomato plant and a strain of Fusarium oxysporum, which is a typical pathogenic bacterium of tomato, an effect of D-psicose during infection was examined.
(§2) To be more specific, seeds of a tomato plant (variety: “House Momotaro”) were subjected to an immersion treatment by immersing them in a D-psicose solution at a concentration of from 0.01% (w/v) to 0.1% (w/v) for 15 minutes while stirring slowly, followed by air-drying on sterile gauze, and then used as treated seeds. At the center of a plastic dish with a diameter of 9 cm filled with 25 ml of 1% (w/v) agar, a mycelial disc (diameter: 1 cm) obtained by pushing out Fusarium oxysporum (IFO 9967 strain and IFO 31213 strain) cultured for 1 week on a potato dextrose agar medium using a cork borer along with the agar medium was placed, and 10 seeds of the above treated seeds were placed equally spaced around the disc. At this time, test plots in which D-psicose was added to the agar medium at a concentration of from 0.01% (w/v) to 0.1% (w/v) were prepared. Then, the dishes were placed at 23° C. under the dark condition for 7 days to 10 days, and observation was carried out with regard to the elongation of shoot, the elongation of root, the shoot development rate, the infection state in root and the like.

[4] = system: Fusarium oxysporum IFO 31213 strain; experiment: as above; format: in vivo, tomato plant (variety: “House Momotaro”)
Description: as §1, §2

[5] = system: Vitis kiusiana Momiyama; experiment: Bud flush of dormant branch cuttings of wild grape; format: in vivo
Description: Matured branches of a Japanese wild grape Vitis kiusiana Momiyama, in which rooting of cuttings is difficult (Mochioka et al., Plant Tissue Culture 13: 139-145, 1996; Journal of ASEV JAPAN 13: 2-8, 2002) and dormancy of buds is deep (Mochioka et al., Journal of Japanese Society for Horticultural Science, 65: 49-54, 1996) were collected in January during the dormant stage, and stored under refrigeration in such a manner that they were not dried. On March 11, they were prepared to have one bud. After each cutting base was immersed in a 3% aqueous solution of D-psicose (supplemented with a spreading agent, Approach BI at 0.2%) for 24 hours, on the following day March 12, it was planted in a Vermiculite bed and placed in a temperature-controlled chamber at 25° C. and 16-hour day length, and the bud flush rate with time was measured. The timing of bud flush was determined to be a time when bud scale leaves fall off and about 50% of the tomentum that protects the bud appears. In a control plot, the cutting base was immersed in distilled water supplemented with 0.2% Approach BI for 24 hours, and then, subjected to the same treatment as described above.
In the survey of the bud flush rate, 9 cuttings were used for each plot and the procedure was repeated three times and an average was obtained.

[6] = system: PBZ1, chitinase gene (PCG3), PAL gene; experiment: Northern blot of genes related to resistance in rice after D-psicose treatment; format: in vivo
Description: A seedling of a rice plant (variety: Nihonbare, see FIG. 10, the middle of the photograph, the white bar: 5 mm) at day 5 after sowing was used for an experiment. The rice seedling was raised by hydroponic culture in a pot using Kimura B solution. The Kimura B solution was supplemented with D-psicose at each concentration. While the solution was replaced with the same solution every 5 days, cultivation was carried out for 10 days. Thereafter, the seedling was transplanted to a pot filled with soil, and then, cultivation was carried out with natural light in a glass chamber for 7 days. Then, total RNA was extracted and a Northern blot analysis was carried out.

[7] = D-psicose seed 0.01%, medium 0.01%
[8] = D-psicose seed 0.01%, medium non
[9] = D-psicose seed 0.05%, medium 0.05%
[10] = D-psicose seed 0.05%, medium non
[11] = D-psicose seed 0.10%, medium 0.10%
[12] = D-psicose seed 0.10%, medium non
[13] = seeds treated, and seeds treated plus agar medium
[14] = 0.5 mM for 10 days, 1 week after transplanting

**Q.** What does the source list for `O=C(CO)[C@H](O)[C@H](O)[C@H](O)CO` [D-psicose]?
**A.** induction of the expression of lipoxygenase gene, persistency [1]: maintained for the longest time; significant effect of spraying on cultivation ([2]; summer): not observed; number of fruits ([2]; winter): increase; yield of fruits ([2]; winter): increase; Root length [3, 7]: 4.5 cm; Shoot length [3, 7]: 5.2 cm; Root length [3, 8]: 4.1 cm; Shoot length [3, 8]: 5.1 cm; Root length [3, 9]: 3.7 cm; Shoot length [3, 9]: 5.7 cm; Root length [3, 10]: 3.3 cm; Shoot length [3, 10]: 3.4 cm; Root length [3, 11]: 2.0 cm; Shoot length [3, 11]: 3.8 cm; Root length [3, 12]: 3.7 cm; Shoot length [3, 12]: 4.3 cm; browning caused by infection of roots with Fusarium oxysporum [3, 13]: reduction; shoot development rate [3, 13]: improvement; mycelial elongation of Fusarium oxysporum ([4]; D-psicose added to the agar medium): inhibited; Root length [4, 7]: 4.7 cm; Shoot length [4, 7]: 4.5 cm; Root length [4, 8]: 3.9 cm; Shoot length [4, 8]: 4.7 cm; Root length [4, 9]: 3.5 cm; Shoot length [4, 9]: 4.5 cm; Root length [4, 10]: 3.8 cm; Shoot length [4, 10]: 4.2 cm; Root length [4, 11]: 2.1 cm; Shoot length [4, 11]: 2.9 cm; Root length [4, 12]: 3.2 cm; Shoot length [4, 12]: 3.0 cm; browning caused by infection of roots with Fusarium oxysporum [4, 13]: reduction; shoot development rate [4, 13]: improvement; bud flush rate compared with control plot ([5]; 3% aqueous solution 24 hours, whole period): higher; timing of bud flush ([5]; cutting base immersed in 3% aqueous solution 24 hours, control mid-April): from late March; expression of genes related to rice disease resistance in leaves ([6]; 0.5 mM 10 days, then one week in soil without D-psicose): induction; induction of PBZ1 [6, 14]: strongly observed; induction of chitinase gene (PCG3) [6, 14]: strongly observed; effect on PAL gene ([6]; constantly expressed gene): no effect; expression of PBZ1 and chitinase gene (PCG3) ([6]; treated plots of from 0.0005 to 0.1 mM): not expressed
